In patent publication US20220306603A1, “TARGETING DNA REPAIR IN TUMOR CELLS VIA INHIBITION OF ERCC1-XPF” (The Governors of the University of Alberta, priority 2019, published 2022):
Entries after “also recorded” stand apart in the source; their conditions may differ.

Legend:
[1] = system: HCT116 cells; experiment: Cytotoxicity profile: crystal violet viability assay (and colony forming assay); type: cell-based, human
Description: Crystal violet viability assays were carried out to assess the cellular toxicity of these compounds to HCT116 cells and to choose relatively non-cytotoxic concentrations to be further utilised in sensitizing cells to UV radiation or cyclophosphamide.
The beneficial effect is especially visible at a concentration of 5.0 μM. At higher concentrations, both compounds show an equal cytotoxic effect (FIG. 15).

[2] = target: DNA; experiment: Binding constant to DNA; conditions: Table 7
[3] = system: HCT116 cells; experiment: Cellular repair of UV-induced cyclobutane pyrimidine dimers (immunofluorescence); type: cell-based, human; conditions: 8 J/m^2 UV-C, up to 24 h post-irradiation
Description: Protocol of Mirzayans et al. was followed with minor modifications (30). Approximately 1×10^5 HCT116 cells were seeded on each coverslip and allowed to attach overnight. Medium was then removed and cells were treated for one hour with the desired compound. The medium was removed, and cells were exposed to 8 J/m^2 UV-C radiation (G15T8 254 nm lamp, Ushio America Inc, Cypress, Calif.) followed by adding fresh medium containing the compound. Plates were incubated at 37° C. for different periods of time up to 24 hours and fixed in 50:50 methanol/1× phosphate-buffered saline (PBS) solution, followed by replacing the methanol/PBS solution with 100% methanol and incubation in −20° C. After 20 minutes, methanol was removed, and cells were treated with PBS for 5 minutes in room temperature. After fixing, cells were permeabilized in 0.5% Triton/PBS and washed with PBS, denatured in 2 N HCl, and neutralized by twice washing with 0.1 M borate buffer pH 8.5. Cells on cover slips were washed once with PBS followed by blocking with 5% non-fat dry milk/PBS for 30 minutes. Mouse anti-thymine dimer monoclonal antibody (Cat. No. MC-062, Kamiya Biomedical Company, Seattle, Wash.) was applied to the cover slips for one hour in the dark and at room temperature. Cells were then washed with PBS containing 0.1% Tween-20 and incubated with rabbit anti-mouse IgG-Alexafluor antibody (Invitrogen, Carlsbad, Calif.) followed by two washes with PBS/(0.1%)Tween-20. Cells on coverslips were then washed with PBS, rinsed with water, and mounted on slides using DAPI glycerol mounting solution. Slides were kept at 4° C. before fluorescent microscopic evaluation and measurement of fluorescence intensity with MetaXpress Version: 6.2.1.704 software (Molecular Devices, Sunnyvale, Calif.).
To test for inhibition of nucleotide excision repair, we monitored the cellular removal of UVC-induced cyclobutane pyrimidine dimers (CPDs) in HCT116 cells over a 24-hour period using an immunochemical assay.

[4] = ADME screening: cell permeability and efflux ratio; conditions: for Cell permeability (Mean recovery %) (in words): Table 8
[5] = target: T1, ERCC1-XPF (Homo sapiens, UniProt Q92889); experiment: Microplate fluorescence incision assay of ERCC1-XPF endonuclease activity; type: biochemical; conditions: for inhibition of ERCC1-XPF endonuclease activity (in words): compounds 10 μM each; for IC50: full-length ERCC1-XPF, 30 minutes incubation, 5% DMSO, read-out: IC50 of ERCC1-XPF endonuclease activity
T1 construct: His6; made in house; host or cells: E. coli BL21 (DE3)
T1 sequence (Q92889 1-916): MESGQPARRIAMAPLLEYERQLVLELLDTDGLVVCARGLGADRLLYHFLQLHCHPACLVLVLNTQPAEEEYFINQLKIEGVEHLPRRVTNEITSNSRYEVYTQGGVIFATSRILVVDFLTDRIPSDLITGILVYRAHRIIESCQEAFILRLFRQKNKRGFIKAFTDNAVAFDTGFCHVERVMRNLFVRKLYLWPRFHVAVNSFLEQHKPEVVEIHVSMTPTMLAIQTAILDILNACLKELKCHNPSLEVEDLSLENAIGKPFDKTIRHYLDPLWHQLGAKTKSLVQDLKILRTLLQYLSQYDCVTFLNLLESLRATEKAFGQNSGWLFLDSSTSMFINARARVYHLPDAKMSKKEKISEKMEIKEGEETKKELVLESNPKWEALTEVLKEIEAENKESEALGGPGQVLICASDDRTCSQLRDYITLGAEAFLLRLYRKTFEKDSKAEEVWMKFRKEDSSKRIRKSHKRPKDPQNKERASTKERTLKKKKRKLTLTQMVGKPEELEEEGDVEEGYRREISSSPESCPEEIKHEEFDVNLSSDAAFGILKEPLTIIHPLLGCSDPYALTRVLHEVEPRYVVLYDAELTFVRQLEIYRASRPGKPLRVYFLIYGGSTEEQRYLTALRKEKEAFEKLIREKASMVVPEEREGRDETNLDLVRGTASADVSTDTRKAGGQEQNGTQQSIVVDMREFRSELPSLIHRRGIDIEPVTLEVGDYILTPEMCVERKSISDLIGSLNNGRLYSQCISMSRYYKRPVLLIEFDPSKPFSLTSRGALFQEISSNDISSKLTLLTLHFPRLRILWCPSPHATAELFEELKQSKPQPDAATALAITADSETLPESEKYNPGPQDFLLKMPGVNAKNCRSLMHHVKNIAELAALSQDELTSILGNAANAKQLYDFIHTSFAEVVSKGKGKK
Excerpt: This assay has been previously described (29), and utilizes a stem-loop substrate (composed of a 10mer-duplex stem and a 20mer-oligodT single-strand loop), labelled on the 5′-terminus with 6-FAM and 3′ with the quencher dabcyl.
Human ERCC1-XPF wild-type protein was obtained as previously described (29). Basically, the recombinant protein was expressed from a bicistronic plasmid (provided by Dr. Richard Wood, University of Texas MD Anderson Cancer Center, Smithville, Tex.) in the E. coli BL21 (DE3) strain. Since both XPF and ERCC1 contained a polyhistidine (His-6) tag, the proteins extracted from E. coli were incubated with a ProBond Nickel-Chelating Resin (Thermo Fisher Scientific). Protein eluted from the Ni affinity column was subsequently loaded into a Hi-trap heparin column (GE Healthcare). Fractions recovered from the heparin column that contained ERCC1-XPF were dialyzed, concentrated and stored at −80° C. in 10 mM HEPES pH 7.4, 2.5 mM p-mercaptoethanol, 0.01% CHAPS, 0.25 mM EDTA, 50% glycerol and 25 mM NaCl.
A previously described protocol (2,29) was followed.

[6] = system: HCT116 cells; experiment: Clonogenic survival assay, UV treatment; type: cell-based, human; conditions: 254 nm UV 0-10 J/m^2; compound 0.5-4 μM
Description: UV treatment: HCT116 cells (100-800 cells depending on the UV dose) were plated in triplicate in 60-mm petri dishes. The cells were incubated overnight at 37° C. in a humidified atmosphere containing 5% CO2 to allow for cell attachment. […] Medium was removed again, and cells were exposed to increasing doses (0-10 J/m^2) of UV-C radiation and then incubated for a further 10 days in the presence of inhibitor at 37° C. in a 5% CO2 atmosphere to allow for colony formation. After this period plates were stained with crystal violet and colonies were counted using a Colcount instrument (Oxford Optronix, Abingdon UK). Finally, plating efficiency and surviving fraction were calculated.

[7] = ADME screening: LogD; conditions: for logD: pH 7.4
[8] = system: HCT116 cells; experiment: Clonogenic survival assay, cyclophosphamide treatment; type: cell-based, human; conditions: cyclophosphamide 0-300 μM; compound 1-4 μM
Description: Plates were incubated for another 8 days at 37° C. in a 5% CO2 atmosphere for colony formation. After this period plates were stained with crystal violet, colonies were counted, and plating efficiency and surviving fraction were calculated.

[9] = target: T2, ERCC1-XPF complex (Homo sapiens, UniProt Q92889); experiment: Steady-state intrinsic tryptophan fluorescence quenching binding assay; conditions: Table 7; read-out: Kd protein
T2 construct: His6; made in house; host or cells: E. coli BL21 (DE3)
T2 sequence (Q92889 1-916): T1 sequence (Q92889 1-916)
Description: Steady-state fluorescence spectra were measured at room temperature on a Perkin-Elmer LS-55 spectrofluorometer (Freemont, Calif.) with 5 nm spectral resolution for excitation and emission using 30-80 nM solution of purified recombinant ERCC1-XPF protein complex. […] In studying the effects of inhibitors on protein fluorescence intensities, additions to protein samples were made from inhibitors stock solutions, keeping the protein dilution below 3%.

[10] = Microsomal stability in vitro (human liver microsomes); conditions: for Microsomal stability in vitro CLint (in words): Table 8
[11] = ADME screening: solubility; type: physicochemical; conditions: Table 8
[12] = Hepatocyte stability in vitro; type: in vitro ADME; conditions: Table 8
[13] = system: five CYP450 tested enzymes
[14] = system: serum proteins; experiment: ADME screening: serum protein binding; type: in vitro ADME; conditions: Table 8

Row | SMILES | inhibition of cellular removal of CPDs / thymidine dimers (in words) [3] | Cell permeability (Mean recovery %) (in words) [4] | inhibition of ERCC1-XPF endonuclease activity (in words) [5] | IC50 [5] | sensitisation to UV radiation, clonogenic survival (in words) [6] | LogD (rating) ([7]; Table 8) | logD [7] | sensitisation to cyclophosphamide, clonogenic survival (in words) [8] | Microsomal stability in vitro CLint (in words) [10] | Solubility (in words) [11] | also measured
1 | CN(C)CCN1CCN(Cc2cc(Nc3c4ccc(Cl)cc4nc4ccc(O)cc34)ccc2O)CC1 [Gen B9] | significantly inhibited the removal of CPDs | Low | marked capacity to inhibit | 490 nM | significantly reduced the survival | Good | 2.01 | significantly sensitised the HCT116 cells to cyclophosphamide | Moderate | Unstable | cells survived ([1]; 5 μM, 3 days exposure, crystal violet): approximately 95%; Kd [2]: 1050 ± 50 nM; inhibition of cellular removal of CPDs / thymidine dimers (in words) ([3]; listed as B9): significantly different; efflux ratio ([4]; not told): > 2; Kd [9]: 85 ± 5 nM; metabolism on exposure to human liver microsomes (in words) [10]: moderate metabolism
2 | COc1ccc2nc3cc(Cl)ccc3c(Nc3ccc(O)c(CN4CCN(CCN(C(C)C)C(C)C)CC4)c3)c2c1 [Gen C-1, 4-((6-Chloro-2-methoxyacridin-9-yl)amino)-2-((4-(2-(diisopropylamino)ethyl)piperazin-1-yl)methyl)-phenol] | significant inhibition of removal of CPDs | Low | higher inhibitory effect | 167 nM | significant sensitisation effect | Good | 3.95 | significantly sensitised the HCT116 cells to cyclophosphamide; also recorded: significantly sensitized the cells to cyclophosphamide | Low clearance | Good | cytotoxicity (in words) ([1]; crystal violet staining, for Gen C1 also colony forming assay): lower cytotoxicity; Hepatocyte stability in vitro CLint (in words) [12]: (medium clearance); CVP inhibition (5 enzyme) (rating) [13]: Good; LogD (remark in the LogD row) ([7]; Table 8): (partially soluble); Serum protein binding (% bound) [14]: (99.5) % bound; Serum protein binding (in words) [14]: Strong binding
